Measurements reported in the NIST ThermoML archive (doi:10.1016/j.jct.2014.05.020).

Experiment: excess molar enthalpy (molar enthalpy of mixing); xn = mol fraction of the nth substance listed
Settings: Liquid, Flow calorimetry

CCO [ethanol] + O
excess molar enthalpy [kcal/mol]
Settings | 423.2 K | 523.2 K
5000 kPa, x2 = 0.1473 | 0.0939 | –
5000 kPa, x2 = 0.2673 | 0.159 | –
5000 kPa, x2 = 0.4508 | 0.215 | –
5000 kPa, x2 = 0.5845 | 0.218 | –
5000 kPa, x2 = 0.6864 | 0.196 | –
5000 kPa, x2 = 0.7665 | 0.164 | –
5000 kPa, x2 = 0.8312 | 0.128 | –
5000 kPa, x2 = 0.8845 | 0.0917 | –
5000 kPa, x2 = 0.9292 | 0.0569 | –
5000 kPa, x2 = 0.9673 | 0.0255 | –
15000 kPa, x2 = 0.1466 | 0.0918 | 0.188
15000 kPa, x2 = 0.2662 | 0.156 | 0.304
15000 kPa, x2 = 0.4493 | 0.215 | 0.401
15000 kPa, x2 = 0.5831 | 0.218 | 0.41
15000 kPa, x2 = 0.6851 | 0.197 | 0.373
15000 kPa, x2 = 0.7655 | 0.166 | 0.322
15000 kPa, x2 = 0.8304 | 0.13 | 0.261
15000 kPa, x2 = 0.8839 | 0.0937 | 0.198
15000 kPa, x2 = 0.9289 | 0.0584 | 0.131
15000 kPa, x2 = 0.9671 | 0.0263 | 0.0634
